Measured values reported in US20090069302A1 (SMITHKLINE BEECHAM CORPORATION, priority 2006, published 2009).

Biological target: T1, AXOR109 (Homo sapiens, UniProt Q8TDU6)
T1 construct: expressed in transfected cells; host or cells: melanophore cells, transfected by electroporation
T1 sequence (Q8TDU6 1-330): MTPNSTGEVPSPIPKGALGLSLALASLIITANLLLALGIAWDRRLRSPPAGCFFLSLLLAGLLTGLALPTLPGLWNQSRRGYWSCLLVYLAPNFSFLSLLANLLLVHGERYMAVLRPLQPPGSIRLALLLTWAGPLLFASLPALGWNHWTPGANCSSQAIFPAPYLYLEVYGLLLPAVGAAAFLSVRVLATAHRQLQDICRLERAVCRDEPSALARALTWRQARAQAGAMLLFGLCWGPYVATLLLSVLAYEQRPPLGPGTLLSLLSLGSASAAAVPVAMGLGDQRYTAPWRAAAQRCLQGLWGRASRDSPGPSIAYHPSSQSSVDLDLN
Assay: Human AXOR109/Melanophore Assay
Type: cell-based
Conditions: melanophore assay; for Emax: 1 h, normalized to alpha-MSH system max; for EC50: AXOR109 transfected melanophores
Method: AXOR109 is a Gs-coupled receptor and therefore increases intracellular cAMP leading to melanosome dispersion. Compounds of the present invention were characterized in a melanophore assay as described in Jayawickreme C K, et al., Current Protocols in Pharmacology (2005) 12.9.1-12.9.16. Briefly, melanophore cells are transfected by electroporation with AXOR109 expressing cDNA. Cells are then plated in 384 well clear bottom plates at 8E3 cells per well in 50 μl of conditioned fibroblast media (CFM). Compounds to be tested are serially diluted 3-fold in DMSO and further diluted 1:100 with melanophore assay buffer (MAB)+10 nM Melatonin to yield 11 point concentration response curves. Following 2 hour incubation with MAB+1% DMSO+10 nM Melatonin, initial transmittance is read on a TwisterII/Spectramax plate reader. Compounds are then added to the cells and incubated for 1 hour, and final transmittance is read as before. Results are compared to vehicle (MAB+1% DMSO+10 nM Melatonin) and to a positive control (MAB+1% DMSO+10 nM Melatonin+200 nM alpha-MSH). Data are calculated for each well as follows: 1-(Transmitance-final/Transmitance-initial). Each well result is then normalized to alpha-MSH, the system max control for Gs/Gq coupled receptors using the following equation: (ObjX−Control1)/(Control2−Control1)*100. The percent system max is used to generate the pEC50 using the equation: y=((Vmax*x̂n)/(K̂n+x̂n))+Y2. Acceptable Z-prime values should be >0.4. Compounds of the present invention have a pEC50≧5.0 in the above described assay.

| Emax | EC50 | Structure (SMILES) |
| --- | --- | --- |
| 0 to 50% | 126 to 1000 nM | CCCN(C1CCN(S(=O)(=O)c2ccc(OC)c(OC)c2)C1)S(=O)(=O)c1ccc(OC)c(OC)c1 (stereo not drawn) [Example 56, N-(1-{[3,4-bis(methyloxy)phenyl]sulfonyl}-3-pyrrolidinyl)-3,4-bis(methyloxy)-N-propylbenzenesulfonamide] |
| 51 to 75% | 1260 to 10000 nM | COc1ccc(S(=O)(=O)N2CCC(N(CC(C)C)S(=O)(=O)c3ccc(OC)c(OC)c3)C2)cc1OC (stereo not drawn) [Example 57, N-(1-{[3,4-bis(methyloxy)phenyl]sulfonyl}-3-pyrrolidinyl)-3,4-bis(methyloxy)-N-(2-methylpropyl)benzenesulfonamide] |
| 76 to 100% | 1260 to 10000 nM | COc1ccc(S(=O)(=O)N2CCC(N(CC3CCC3)S(=O)(=O)c3ccc(OC)c(OC)c3)C2)cc1OC (stereo not drawn) [Example 58, N-(1-{[3,4-bis(methyloxy)phenyl]sulfonyl}-3-pyrrolidinyl)-N-(cyclobutylmethyl)-3,4-bis(methyloxy)benzenesulfonamide] |
| 76 to 100% | 126 to 1000 nM | CCCN([C@@H]1CCN(S(=O)(=O)c2ccc(OC)c(OC)c2)C1)S(=O)(=O)c1ccc(OC)c(OC)c1 [Example 59, N-((3R)-1-{[3,4-bis(methyloxy)phenyl]sulfonyl}-3-pyrrolidinyl)-3,4-bis(methyloxy)-N-propylbenzenesulfonamide] |
| 76 to 100% | < 126 nM | CCN([C@@H]1CCN(S(=O)(=O)c2ccc(OC)c(OC)c2)C1)S(=O)(=O)c1ccc(OC)c(OC)c1 [Example 60, N-((3R)-1-{[3,4-bis(methyloxy)phenyl]sulfonyl}-3-pyrrolidinyl)-N-ethyl-3,4-bis(methyloxy)benzenesulfonamide] |
| 76 to 100% | 1260 to 10000 nM | CCCN([C@H]1CCN(S(=O)(=O)c2ccc(OC)c(OC)c2)C1)S(=O)(=O)c1ccc(OC)c(OC)c1 [Example 61, N-((3S)-1-{[3,4-bis(methyloxy)phenyl]sulfonyl}-3-pyrrolidinyl)-3,4-bis(methyloxy)-N-propylbenzenesulfonamide] |
| 76 to 100% | 1260 to 10000 nM | CCN([C@H]1CCN(S(=O)(=O)c2ccc(OC)c(OC)c2)C1)S(=O)(=O)c1ccc(OC)c(OC)c1 [Example 62, N-((3S)-1-{[3,4-bis(methyloxy)phenyl]sulfonyl}-3-pyrrolidinyl)-N-ethyl-3,4-bis(methyloxy)benzenesulfonamide] |
| – | 1260 to 10000 nM | COc1ccc(S(=O)(=O)N2C[C@H](C)N(S(=O)(=O)c3ccc(OS(C)(=O)=O)c(OC)c3)C[C@@H]2C)cc1OC [Example 63, 4-[((2S,5S)-4-{[3,4-bis(methyloxy)phenyl]sulfonyl}-2,5-dimethyl-1-piperazinyl)sulfonyl]-2-(methyloxy)phenyl methanesulfonate] |
| 76 to 100% | 126 to 1000 nM | CCc1cc(S(=O)(=O)N2CCN(S(=O)(=O)c3ccc(OC)c(OC)c3)CC2)ccc1OC [Example 64, 1-{[3,4-bis(methyloxy)phenyl]sulfonyl}-4-{[3-ethyl-4-(methyloxy)phenyl]sulfonyl}piperazine] |
| 51 to 75% | 1260 to 10000 nM | COc1ccc(S(=O)(=O)N(C)CCN(C)S(=O)(=O)c2ccc3c(c2)n(C)c(=O)n3C)cc1OC [Example 65, N-methyl-N-{2-[{[3,4-bis(methyloxy)phenyl]sulfonyl}(methyl)amino]ethyl}-1,3-dimethyl-2-oxo-2,3-dihydro-1H-benzimidazole-5-sulfonamide] |
| 51 to 75% | 1260 to 10000 nM | COc1ccc(S(=O)(=O)NCC(C)N(C)S(=O)(=O)c2ccc(OC)c(OC)c2)cc1OC (stereo not drawn) [Example 66, N-[2-({[3,4-bis(methyloxy)phenyl]sulfonyl}amino)-1-methylethyl]-N-methyl-3,4-bis(methyloxy)benzenesulfonamide] |
| – | 126 to 1000 nM | COc1ccc(S(=O)(=O)N2C[C@H](C)N(S(=O)(=O)c3ccc(OC)c(OC)c3)C[C@@H]2C)cc1F [Example 67, (2S,5S)-1-{[3,4-bis(methyloxy)phenyl]sulfonyl}-4-{[3-fluoro-4-(methyloxy)phenyl]sulfonyl}-2,5-dimethylpiperazine] |
| 76 to 100% | 126 to 1000 nM | CCc1cc(S(=O)(=O)N2C[C@H](C)N(S(=O)(=O)c3ccc(OC)c(OC)c3)C[C@@H]2C)ccc1OC [Example 68, (2S,5S)-1-{[3,4-bis(methyloxy)phenyl]sulfonyl}-4-{[3-ethyl-4-(methyloxy)phenyl]sulfonyl}-2,5-dimethylpiperazine] |
| 76 to 100% | 1260 to 10000 nM | COc1ccc(S(=O)(=O)N2C[C@H](C)N(S(=O)(=O)c3cccc4cccnc34)C[C@@H]2C)cc1OC [Example 69, 8-[((2S,5S)-4-{[3,4-bis(methyloxy)phenyl]sulfonyl}-2,5-dimethyl-1-piperazinyl)sulfonyl]quinoline] |
| > 100% | 126 to 1000 nM | COc1ccc(S(=O)(=O)N2C[C@H](C)N(S(=O)(=O)c3ccc4c(c3)OCO4)C[C@@H]2C)cc1OC [Example 70, (2S,5S)-1-(1,3-benzodioxol-5-ylsulfonyl)-4-{[3,4-bis(methyloxy)phenyl]sulfonyl}-2,5-dimethylpiperazine] |
| 76 to 100% | 126 to 1000 nM | COc1ccc(S(=O)(=O)N2C[C@H](C)N(S(=O)(=O)c3ccc4c(c3)OCCO4)C[C@@H]2C)cc1OC [Example 71, (2S,5S)-1-{[3,4-bis(methyloxy)phenyl]sulfonyl}-4-(2,3-dihydro-1,4-benzodioxin-6-ylsulfonyl)-2,5-dimethylpiperazine] |
| > 100% | 126 to 1000 nM | COc1ccc(S(=O)(=O)N2C[C@H](C)N(S(=O)(=O)c3ccc(OC)c(OC)c3)C[C@@H]2C)cc1 [Example 72, (2S,5S)-1-{[3,4-bis(methyloxy)phenyl]sulfonyl}-2,5-dimethyl-4-{[4-(methyloxy)phenyl]sulfonyl}piperazine] |
| 76 to 100% | 1260 to 10000 nM | COc1ccc(S(=O)(=O)N(C)CCN(C)S(=O)(=O)c2ccc3c(c2)OCCCO3)cc1OC [Example 73, N-{2-[{[3,4-bis(methyloxy)phenyl]sulfonyl}(methyl)amino]ethyl}-N-methyl-3,4-dihydro-2H-1,5-benzodioxepin-7-sulfonamide] |
| 76 to 100% | 126 to 1000 nM | CCN(C[C@H](C)N(CC)S(=O)(=O)c1ccc(OC)c(OC)c1)S(=O)(=O)c1ccc(OC)c(OC)c1 [Example 74, N,N′-(2S)-1,2-propanediylbis[N-ethyl-3,4-bis(methyloxy)benzenesulfonamide]] |
| 76 to 100% | 126 to 1000 nM | CC=CCN(CCN(C)S(=O)(=O)c1ccc(OC)c(OC)c1)S(=O)(=O)c1ccc(OC)c(OC)c1 [Example 75, N-{2-[{[3,4-bis(methyloxy)phenyl]sulfonyl}(2-buten-1-yl)amino]ethyl}-N-methyl-3,4-bis(methyloxy)benzenesulfonamide] |
| 51 to 75% | 1260 to 10000 nM | COc1ccc(S(=O)(=O)N2CCN(S(=O)(=O)c3ccc(OC)c(OC)c3)C(=O)C2)cc1OC [Example 76, 1,4-bis{[3,4-bis(methyloxy)phenyl]sulfonyl}-2-piperazinone] |
| 76 to 100% | 1260 to 10000 nM | COc1ccc(S(=O)(=O)N[C@@H]2CCN(S(=O)(=O)c3ccc(OC)c(OC)c3)C2)cc1OC [Example 77, N-((3R)-1-{[3,4-bis(methyloxy)phenyl]sulfonyl}-3-pyrrolidinyl)-3,4-bis(methyloxy)benzenesulfonamide] |
| 51 to 75% | 1260 to 10000 nM | COc1ccc(S(=O)(=O)N2CCN(S(=O)(=O)c3ccc4c(c3)OCCO4)CC2)cc1OC [Example 78, 1-{[3,4-bis(methyloxy)phenyl]sulfonyl}-4-(2,3-dihydro-1,4-benzodioxin-6-ylsulfonyl)piperazine] |
| > 100% | < 126 nM | COc1ccc(S(=O)(=O)N2C[C@@H](C)N(S(=O)(=O)c3ccc(OC)c(OC)c3)[C@@H](C)C2)cc1OC [Example 79, cis-1,4-bis{[3,4-bis(methyloxy)phenyl]sulfonyl}-2,6-dimethylpiperazine] |
| 51 to 75% | 1260 to 10000 nM | COc1cccc(S(=O)(=O)N2[C@H](C)CN(S(=O)(=O)c3ccc(OC)c(OC)c3)C[C@@H]2C)c1 [Example 80] |
| 51 to 75% | 126 to 1000 nM | COc1ccc(S(=O)(=O)N2CCN(S(=O)(=O)c3ccc(OC)c(OC)c3)c3ccccc32)cc1OC [Example 83] |
| 51 to 75% | 126 to 1000 nM | COc1ccc(S(=O)(=O)N2CC[C@@H](N(C)S(=O)(=O)c3ccc(OC)c(OC)c3)C2)cc1OC [Example 85] |
| 76 to 100% | 1260 to 10000 nM | COc1ccc(S(=O)(=O)N2C[C@@H]3C[C@H]2CN3S(=O)(=O)c2ccc(OC)c(OC)c2)cc1OC [Example 86] |
